Legend:
Type in all cases: functional
SK-MEL-5 = assay: Growth inhibition of human SK-MEL-5 cells after 48 hrs by SRB protein assay; details: SK-MEL-5, 48 h
UACC-62 = assay: Growth inhibition of human UACC62 cells after 48 hrs by SRB protein assay; details: UACC-62, 48 h
OVCAR-3 = assay: Growth inhibition of human OVCAR-3 cells after 48 hrs by SRB protein assay; details: OVCAR-3, 48 h
OVCAR-5 = assay: Growth inhibition of human OVCAR5 cells after 48 hrs by SRB protein assay; details: OVCAR-5, 48 h; for CC50: read-out: LC50 (the source's name)
NCI-H460 = assay: Anticancer activity against human NCL-H460 cells assessed as growth at 100 uM after 48 hrs by SRB protein assay relative to control; details: NCI-H460, 48 h, read-out: Activity
MOLT-4 = assay: Growth inhibition of human MOLT4 cells after 48 hrs by SRB protein assay; details: MOLT-4, 48 h
RPMI-8226 = assay: Growth inhibition of human RPMI8226 cells after 48 hrs by SRB protein assay; details: RPMI-8226, 48 h; for CC50: read-out: LC50 (the source's name)
A549 = assay: Growth inhibition of human A549 cells after 48 hrs by SRB protein assay; details: A549, 48 h
HOP-62 = assay: Growth inhibition of human HOP62 cells after 48 hrs by SRB protein assay; details: HOP-62, 48 h
[1] = Growth inhibition of human NCL-H23 cells after 48 hrs by SRB protein assay; details: NCL-H23, 48 h
HCT-15 = assay: Growth inhibition of human HCT15 cells after 48 hrs by SRB protein assay; details: HCT-15, 48 h
SF-295 = assay: Growth inhibition of human SF295 cells after 48 hrs by SRB protein assay; details: SF-295, 48 h
SF-539 = assay: Growth inhibition of human SF539 cells after 48 hrs by SRB protein assay; details: SF-539, 48 h
OVCAR-8 = assay: Growth inhibition of human OVCAR8 cells after 48 hrs by SRB protein assay; details: OVCAR-8, 48 h
A498 = assay: Growth inhibition of human A498 cells after 48 hrs by SRB protein assay; details: A498, 48 h; for CC50: read-out: LC50 (the source's name)
CAKI-1 = assay: Growth inhibition of human CAKI1 cells after 48 hrs by SRB protein assay; details: CAKI-1, 48 h; for CC50: read-out: LC50 (the source's name)
RXF 393 = assay: Growth inhibition of human RXF393 cells after 48 hrs by SRB protein assay; details: RXF 393, 48 h; for CC50: read-out: LC50 (the source's name)
SN12C = assay: Growth inhibition of human SN12C cells after 48 hrs by SRB protein assay
TK-10 = assay: Growth inhibition of human TK10 cells after 48 hrs by SRB protein assay; details: TK-10, 48 h
DU-145 = assay: Growth inhibition of human DU145 cells after 48 hrs by SRB protein assay; details: DU-145, 48 h; for CC50: read-out: LC50 (the source's name)
MCF7 = assay: Growth inhibition of human MCF7 cells after 48 hrs by SRB protein assay; details: MCF7, 48 h
MDA-MB-435 = assay: Growth inhibition of human MDA-MB-435 cells after 48 hrs by SRB protein assay; details: MDA-MB-435, 48 h
BT-549 = assay: Growth inhibition of human BT549 cells after 48 hrs by SRB protein assay; details: BT-549, 48 h; for CC50: read-out: LC50 (the source's name)
T47D = assay: Growth inhibition of human T47D cells after 48 hrs by SRB protein assay
Hs-578T = assay: Growth inhibition of human HS578T cells after 48 hrs by SRB protein assay
SK-OV-3 = assay: Growth inhibition of human SK-OV-3 cells after 48 hrs by SRB protein assay; details: SK-OV-3, 48 h

Clc1nc(Cl)c2ncn(Cc3ccc(Cn4cnc5c(Cl)nc(Cl)nc54)cc3)c2n1
GI50 (SK-MEL-5): 10.7 µM
LC50 (SK-MEL-5): 47.9 µM
TGI (SK-MEL-5): 22.9 µM
GI50 (UACC-62): 13.8 µM
LC50 (concentration killing 50% of cells) (UACC-62): 51.3 µM
TGI (UACC-62): 26.9 µM
GI50 (OVCAR-3): 13.5 µM
LC50 (OVCAR-3): 51.3 µM
TGI (OVCAR-3): 26.3 µM
TGI (OVCAR-5): 26.3 µM
CC50 (OVCAR-5): 51.3 µM
growth at 100 µM (NCI-H460): 0%
GI50 (MOLT-4): 7.94 µM
LC50 (MOLT-4): 45.7 µM
TGI (MOLT-4): 20.9 µM
GI50 (RPMI-8226): 6.45 µM
TGI (RPMI-8226): 25.1 µM
CC50 (RPMI-8226): 75.9 µM
LC50 (A549): 50.1 µM
TGI (A549): 25.1 µM
LC50 (HOP-62): 51.3 µM
TGI (HOP-62): 26.3 µM
GI50 [1]: 13.8 µM
LC50 [1]: 51.3 µM
TGI [1]: 26.9 µM
GI50 (HCT-15): 13.2 µM
LC50 (HCT-15): 51.3 µM
TGI (HCT-15): 25.7 µM
GI50 (SF-295): 19.1 µM
LC50 (SF-295): 85.1 µM
TGI (SF-295): 40.7 µM
LC50 (SF-539): 37.1 µM
TGI (SF-539): 13.8 µM
GI50 (OVCAR-8): 3.02 µM
LC50 (OVCAR-8): 49 µM
TGI (OVCAR-8): 8.13 µM
TGI (A498): 22.9 µM
CC50 (A498): 47.9 µM
GI50 (CAKI-1): 15.8 µM
TGI (CAKI-1): 30.2 µM
CC50 (CAKI-1): 57.5 µM
GI50 (RXF 393): < 0.01 µM
CC50 (RXF 393): 20.9 µM
GI50 (SN12C): 14.1 µM
LC50 (SN12C): 52.5 µM
TGI (SN12C): 27.5 µM
GI50 (TK-10): 13.2 µM
LC50 (50% lethal concentration) (TK-10): 51.3 µM
TGI (TK-10): 26.3 µM
GI50 (DU-145): < 0.01 µM
TGI (DU-145): 4.16 µM
CC50 (DU-145): 26.3 µM
GI50 (MCF7): 10.5 µM
LC50 (MCF7): 61.7 µM
TGI (MCF7): 25.1 µM
GI50 (MDA-MB-435): 16.6 µM
LC50 (MDA-MB-435): 61.7 µM
TGI (MDA-MB-435): 31.6 µM
GI50 (BT-549): < 0.01 µM
TGI (BT-549): 19.1 µM
CC50 (BT-549): 43.6 µM
GI50 (T47D): 1.62 µM
LC50 (T47D): 42.6 µM
TGI (T47D): 13.5 µM
GI50 (Hs-578T): < 0.01 µM
LC50 (concentration killing 50% of cells) (Hs-578T): 43.6 µM
TGI (Hs-578T): 16.2 µM

Clc1nc(Cl)c2ncn(Cc3ccccc3Cn3cnc4c(Cl)nc(Cl)nc43)c2n1
GI50 (SK-MEL-5): 2.24 µM
LC50 (SK-MEL-5): 22.9 µM
TGI (SK-MEL-5): 6.17 µM
GI50 (UACC-62): 1.74 µM
LC50 (concentration killing 50% of cells) (UACC-62): 6.61 µM
TGI (UACC-62): 3.39 µM
GI50 (OVCAR-3): 1.66 µM
LC50 (OVCAR-3): 5.5 µM
TGI (OVCAR-3): 3.02 µM
GI50 (OVCAR-5): 20.9 µM
TGI (OVCAR-5): 38 µM
CC50 (OVCAR-5): 70.8 µM
growth at 100 µM (NCI-H460): 0%
GI50 (MOLT-4): 1.66 µM
LC50 (MOLT-4): 8.13 µM
TGI (MOLT-4): 3.63 µM
GI50 (RPMI-8226): 0.55 µM
TGI (RPMI-8226): 2.34 µM
GI50 (A549): 4.79 µM
LC50 (A549): > 100 µM
TGI (A549): 20.4 µM
GI50 (HOP-62): 21.9 µM
LC50 (HOP-62): 72.4 µM
TGI (HOP-62): 39.8 µM
GI50 [1]: 15.5 µM
LC50 [1]: 67.6 µM
TGI [1]: 32.4 µM
GI50 (HCT-15): 1.86 µM
LC50 (HCT-15): 12.6 µM
TGI (HCT-15): 4.47 µM
GI50 (SF-295): 15.1 µM
LC50 (SF-295): 57.3 µM
TGI (SF-295): 28.2 µM
LC50 (SF-539): 0.49 µM
TGI (SF-539): 0.14 µM
GI50 (OVCAR-8): 3.02 µM
LC50 (OVCAR-8): 49 µM
TGI (OVCAR-8): 8.13 µM
GI50 (SK-OV-3): 11.5 µM
TGI (SK-OV-3): 31.6 µM
CC50 (SK-OV-3; read-out: LC50 (the source's name)): 87.1 µM
GI50 (A498): 17 µM
TGI (A498): 33.9 µM
CC50 (A498): 67.6 µM
GI50 (CAKI-1): 1.73 µM
TGI (CAKI-1): 3.09 µM
CC50 (CAKI-1): 5.62 µM
TGI (RXF 393): 3.47 µM
CC50 (RXF 393): 7.08 µM
GI50 (SN12C): 2.51 µM
LC50 (SN12C): 26.9 µM
TGI (SN12C): 6.61 µM
GI50 (TK-10): 2.69 µM
LC50 (50% lethal concentration) (TK-10): 28.8 µM
TGI (TK-10): 7.94 µM
GI50 (DU-145): 1 µM
TGI (DU-145): 2.51 µM
CC50 (DU-145): 6.46 µM
GI50 (MCF7): 1.55 µM
LC50 (MCF7): > 100 µM
TGI (MCF7): 4.57 µM
GI50 (MDA-MB-435): 2.4 µM
LC50 (MDA-MB-435): 17.4 µM
TGI (MDA-MB-435): 5.5 µM
GI50 (BT-549): 0.17 µM
TGI (BT-549): 1.51 µM
CC50 (BT-549): 5.01 µM
GI50 (T47D): 2.19 µM
LC50 (T47D): > 100 µM
TGI (T47D): 5.89 µM
GI50 (Hs-578T): 3.09 µM
LC50 (concentration killing 50% of cells) (Hs-578T): > 100 µM
TGI (Hs-578T): 11.2 µM

Clc1nc(Cl)c2ncn(Cc3cccc(Cn4cnc5c(Cl)nc(Cl)nc54)c3)c2n1
GI50 (SK-MEL-5): 2.45 µM
LC50 (SK-MEL-5): 22.4 µM
TGI (SK-MEL-5): 5.88 µM
GI50 (UACC-62): 2.39 µM
LC50 (concentration killing 50% of cells) (UACC-62): 22.4 µM
TGI (UACC-62): 5.88 µM
GI50 (OVCAR-3): 2.39 µM
LC50 (OVCAR-3): 28.2 µM
TGI (OVCAR-3): 7.24 µM
GI50 (OVCAR-5): 20.9 µM
TGI (OVCAR-5): 38 µM
CC50 (OVCAR-5): 70.8 µM
growth at 100 µM (NCI-H460): 0%
GI50 (MOLT-4): 3.46 µM
LC50 (MOLT-4): > 100 µM
TGI (MOLT-4): 13.8 µM
GI50 (RPMI-8226): 2.57 µM
TGI (RPMI-8226): 11.2 µM
CC50 (RPMI-8226): > 100 µM
GI50 (A549): 11.2 µM
LC50 (A549): 61.6 µM
TGI (A549): 26.3 µM
GI50 (HOP-62): 5.01 µM
LC50 (HOP-62): 51.3 µM
TGI (HOP-62): 17.8 µM
GI50 [1]: 8.51 µM
LC50 [1]: 52.5 µM
TGI [1]: 21.9 µM
GI50 (HCT-15): 5.75 µM
LC50 (HCT-15): 74.1 µM
TGI (HCT-15): 22.4 µM
GI50 (SF-295): 16.6 µM
LC50 (SF-295): 57.5 µM
TGI (SF-295): 30.9 µM
GI50 (SF-539): 1.38 µM
LC50 (SF-539): 7.07 µM
TGI (SF-539): 3.16 µM
GI50 (OVCAR-8): 4.67 µM
LC50 (OVCAR-8): 72.4 µM
TGI (OVCAR-8): 18.6 µM
GI50 (A498): 4.57 µM
TGI (A498): 17.4 µM
CC50 (A498): 46.8 µM
GI50 (CAKI-1): 12 µM
TGI (CAKI-1): 26.3 µM
CC50 (CAKI-1): 57.5 µM
GI50 (RXF 393): 1.9 µM
TGI (RXF 393): 3.71 µM
CC50 (RXF 393): 7.24 µM
GI50 (SN12C): 4.67 µM
LC50 (SN12C): 60.2 µM
TGI (SN12C): 18.2 µM
GI50 (TK-10): 2.45 µM
LC50 (50% lethal concentration) (TK-10): 26.9 µM
TGI (TK-10): 7.24 µM
GI50 (DU-145): 1.73 µM
TGI (DU-145): 3.09 µM
CC50 (DU-145): 5.62 µM
GI50 (MCF7): 3.63 µM
LC50 (MCF7): > 100 µM
TGI (MCF7): 37.1 µM
GI50 (MDA-MB-435): 7.24 µM
LC50 (MDA-MB-435): 58.9 µM
TGI (MDA-MB-435): 22.4 µM
GI50 (BT-549): 3.38 µM
TGI (BT-549): 11 µM
CC50 (BT-549): 34.7 µM
GI50 (T47D): 3.02 µM
LC50 (T47D): > 100 µM
TGI (T47D): 8.51 µM
GI50 (Hs-578T): 2.69 µM
LC50 (concentration killing 50% of cells) (Hs-578T): 83.2 µM
TGI (Hs-578T): 7.24 µM

— ChEMBL document CHEMBL1143809, “New bis-N9-(methylphenylmethyl)purine derivatives: synthesis and antitumor activity” (2007)
